Assay [1] addresses T1, 5-LO (Homo sapiens, UniProt P09917).
T1 sequence (P09917 1-674): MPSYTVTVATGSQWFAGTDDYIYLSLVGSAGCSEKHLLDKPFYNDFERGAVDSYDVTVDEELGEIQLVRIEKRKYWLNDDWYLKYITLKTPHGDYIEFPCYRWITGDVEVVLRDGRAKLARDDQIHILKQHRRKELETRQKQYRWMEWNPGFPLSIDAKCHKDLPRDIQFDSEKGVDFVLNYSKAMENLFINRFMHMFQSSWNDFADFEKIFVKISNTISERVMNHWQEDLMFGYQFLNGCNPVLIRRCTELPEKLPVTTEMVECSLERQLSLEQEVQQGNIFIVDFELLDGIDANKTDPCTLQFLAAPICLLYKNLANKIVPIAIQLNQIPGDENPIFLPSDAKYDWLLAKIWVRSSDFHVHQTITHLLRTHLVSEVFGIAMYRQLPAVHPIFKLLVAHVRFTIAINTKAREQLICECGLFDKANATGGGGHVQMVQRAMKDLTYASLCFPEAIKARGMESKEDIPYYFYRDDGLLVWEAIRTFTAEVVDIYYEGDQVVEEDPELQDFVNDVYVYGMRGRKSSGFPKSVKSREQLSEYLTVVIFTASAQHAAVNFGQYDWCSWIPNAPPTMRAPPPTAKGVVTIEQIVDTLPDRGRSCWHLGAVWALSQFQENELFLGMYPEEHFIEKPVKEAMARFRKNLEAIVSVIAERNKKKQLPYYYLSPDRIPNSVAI
Put plainly: 5-LO activity in a cell-free assay (isolated human recombinant 5-LO, 20 µM arachidonic acid). Type of assay: biochemical. More on the design: made in house; host or cells: Escherichia coli BL21 (pT3-5-LO plasmid). The note with it: residual activity at 10 µM, isolated 5-LO, 20 µM arachidonic acid, mean ± SEM, 3–4 experiments. The protocol:
Human recombinant 5-LO was expressed in Eschericha coli BL21 transformed with pT3-5-LO plasmid at 30 °C overnight, as described elsewhere. Cells were lysed in lysis buffer containing triethanolamine (50 mM, pH 8.0), EDTA (5 mM), phenylmethanesulfonyl fluoride (1 mM), soybean trypsin inhibitor (60 µg/mL), dithiothreitol (2 mM), and lysozyme (1 mg/mL), and homogenized by sonification (3 × 15 s). 5-LO was then purified from 40,000× g supernatant (20 min, 4 °C) using an ATP-agarose column (Sigma-Aldrich, Deisenhofen, Germany), diluted with PBS buffer containing 1 mM EDTA, and immediately used for 5-LO activity assays.
To determine 5-LO activity, aliquots of purified 5-LO (0.5 µg 5-LO in 1 mL PBS plus 1 mM EDTA) were pre-incubated with the test compounds or vehicle (0.1% dimethyl sulfoxide, DMSO) on ice for 15 min, pre-warmed for 30 s at 37 °C in a water bath, and then stimulated with 20 µM AA and CaCl2 2 mM for 10 min at 37 °C. The reaction was stopped with one volume of ice-cold methanol and 5-LO products (including all-trans-isomers of LTB4 and 5-hydroperoxyeicosatetraenoic acid (5-HpETE), as well as its corresponding alcohol 5-hydroxyeicosatetraenoic acid (5-HETE)) were analyzed by reversed phase (RP)-HPLC (Elite LaChrom, VWR, Radnor, PA, USA) as previously described. In brief, acidified PBS and 200 ng of internal PGB1 standard were added and solid phase extraction using C18 RP-columns (100 mg, UCT, Bristol, PA, USA) was performed. After elution with methanol, samples were analyzed by RP-HPLC using a C-18 Radial-PAK column (Waters, Eschborn, Germany).

Assay [2] has as its target T1, 5-LO. Put plainly: 5-LO product formation in intact human neutrophils stimulated with A23187 (cell-based). The note with it: human neutrophils; for remaining activity at 10 µM: read-out: 5-LO Activity [% Control] cell-based. More on the design: 5-LO product formation in intact human neutrophils; endogenous in cells; host or cells: freshly isolated human peripheral blood neutrophils. The protocol:
Neutrophils were isolated from peripheral blood (University Hospital Tübingen, Germany), collected from fasted healthy adult donors that were informed about the aim of the study and gave written consent. Leukocyte concentrates were obtained by centrifugation (4000× g, 20 min, 20 °C) of heparinized blood preparation, and neutrophils were immediately isolated as described before. Briefly, leukocyte concentrates were subjected to dextran sedimentation and centrifuged on lymphocyte separation medium (LSM 1077, PAA, Coelbe, Germany). For isolation of pelleted neutrophils, remaining erythrocytes were removed by hypotonic lysis, washed twice with ice-cold phosphate-buffered saline (PBS) and finally resuspended in PBS buffer containing 0.1% glucose and CaCl2 (1 mM) (PGC buffer).
5-LO product formation in intact human neutrophils was performed using 5 × 10^6 freshly isolated cells that were resuspended in 1 mL PGC buffer. Cells were pre-incubated with the test compounds or vehicle (0.1% DMSO) at 37 °C for 15 min prior to stimulation with 2.5 µM Ca^2+-ionophore A23187 for 10 min (37 °C). 5-LO product formation was stopped by addition of one volume of ice-cold methanol, samples were subjected to solid phase extraction after addition of 200 ng PGB1 as internal standard, and 5-LO products (LTB4, its trans-isomers and 5-HETE) were analyzed by RP-HPLC as described above.

Assay [3] has as its target T2, cathepsin G (Homo sapiens, UniProt P08311).
T2 construct: purified cathepsin G (0.2 µg) from human neutrophils; purchased Calbiochem; host or cells: human neutrophils (natural source)
T2 sequence (P08311 21-244 limits assumed): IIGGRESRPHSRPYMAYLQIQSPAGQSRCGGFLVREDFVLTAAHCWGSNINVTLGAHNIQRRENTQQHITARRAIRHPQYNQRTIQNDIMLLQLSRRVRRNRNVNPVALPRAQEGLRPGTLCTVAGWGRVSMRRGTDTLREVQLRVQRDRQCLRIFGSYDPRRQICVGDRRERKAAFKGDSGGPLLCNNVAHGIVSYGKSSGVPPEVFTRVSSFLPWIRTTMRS
Put plainly: Cathepsin G activity in a cell-free assay (Suc-AAPF-pNA substrate). Type of assay: biochemical. The note with it: for IC50: purified cathepsin G from human neutrophils, read-out: Cat. G IC50 (converted); for remaining activity at 10 µM: read-out: Cat. G Activity [% Control]. The protocol: Commercially available purified cathepsin G (0.2 µg) from human neutrophils (Calbiochem, La Jolla, CA, USA) was mixed with test compounds or DMSO (vehicle control) in 200 µL 0.1 M HEPES pH 7.4, 0.5 M NaCl, and 10% DMSO in a 96-well plate (Greiner Bio-One, Frickenhausen, Germany) and pre-incubated for 20 min at 25 °C. Then, N-Suc–Ala–Ala–Pro–Phe–pNA (Suc–AAPF–pNA) (1 mM) as substrate for cathespin G was added, and the absorbance was measured at 410 nm at 25 °C using a Victor^2 plate reader (PerkinElmer, Waltham, MA, USA).

[4] abbreviates: residual activity at 10 µM, A23187, mean ± SEM, 3–4 experiments.
Setting [5] is: residual activity at 10 µM, cell-free, mean ± SEM, 3–4 experiments.

In the case of `C[C@H]1[C@H](C)CC[C@]2(C)CC[C@]3(C)C(=CC(=O)[C@@H]4[C@@]5(C)CC[C@@H](OC(=O)CCCC(=O)O)[C@](C)(C(=O)O)[C@@H]5CC[C@]43C)[C@H]12` [compound 25, 3-O-Glutaroyl-11-keto-β-boswellic acid], in assay [1], the “5-LO Activity [% Control] cell-free” value was “n.i”. Further, the “5-LO Activity [% Control] cell-based” value in assay [2] (setting [4]) is “n.i”. Further, the half-inhibitory concentration (IC50) in assay [3] (cell-free) was 8.6 µM. For the same compound, the remaining activity at 10 µM in assay [3] (setting [5]) amounted to 49.1 ± 11%.
As to `C[C@H]1[C@H](C)CC[C@]2(C)CC[C@]3(C)C(=CC[C@@H]4[C@@]5(C)CC[C@@H](OCC(=O)O)[C@](C)(C(=O)O)[C@@H]5CC[C@]43C)[C@H]12` [compound 26, 3-O-Carboxymethyl-β-boswellic acid], the results for the remaining activity at 10 µM in assay [1] (read-out: 5-LO Activity [% Control] cell-free), in assay [2] (setting [4]) and in assay [3] (setting [5]) were 78.1 ± 7.4%, 57.6 ± 5.3% and 28.8 ± 7.4%, respectively. Besides, in assay [2] (at 10 µM, read-out: inhibition of 5-LO activity in intact cells), the inhibition at 10 µM stood at 42%. In assay [3] (cell-free), the half-inhibitory concentration (IC50) was 3.4 µM.
Consider `C[C@H]1[C@H](C)CC[C@]2(C)CC[C@]3(C)C(=CC(=O)[C@@H]4[C@@]5(C)CC[C@@H](OCC(=O)O)[C@](C)(C(=O)O)[C@@H]5CC[C@]43C)[C@H]12` [compound 27, 3-O-Carboxymethyl-11-keto-β-boswellic acid], for which the “5-LO Activity [% Control] cell-free” value in assay [1] is reported as “n.i”. Further, the remaining activity at 10 µM in assay [2] (setting [4]) is 68.4 ± 2.1%. In assay [3] (at 10 µM), the “inhibition of cathepsin G” value is on record as “not active”. In addition, in assay [3] (setting [5]), the “Cat. G Activity [% Control]” value is listed as “n.i”.
